We go through 34 compounds from US20260256807A1, “SUBSTITUTED PYRAZOLES AND IMIDAZOLES AS OREXIN RECEPTOR ANTAGONISTS COMPOSITION, METHODS FOR TREATING NEUROLOGICAL AND PSYCHOLOGICAL DISORDERS” (HAGER BIOSCIENCES, LLC, priority 2022, published 2026).

For one assay, the target named is T1, human orexin-1 receptor (Homo sapiens, UniProt O43613).
T1 construct: expressed in transfected cells; host or cells: CHO cells (G418 selection)
T1 sequence (O43613 1-425): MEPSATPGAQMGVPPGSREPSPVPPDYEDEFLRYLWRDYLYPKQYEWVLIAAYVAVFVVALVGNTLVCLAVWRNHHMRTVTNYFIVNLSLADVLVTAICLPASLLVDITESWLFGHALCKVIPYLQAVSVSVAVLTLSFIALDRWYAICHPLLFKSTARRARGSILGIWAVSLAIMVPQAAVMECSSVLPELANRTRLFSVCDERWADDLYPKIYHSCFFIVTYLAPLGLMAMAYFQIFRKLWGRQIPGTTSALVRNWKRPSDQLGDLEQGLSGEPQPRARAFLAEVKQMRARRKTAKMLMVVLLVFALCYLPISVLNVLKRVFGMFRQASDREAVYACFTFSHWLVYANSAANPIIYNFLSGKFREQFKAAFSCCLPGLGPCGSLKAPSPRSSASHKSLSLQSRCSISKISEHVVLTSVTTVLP
Description: Intracellular calcium (FLIPR) antagonist assay, CHO cells expressing human orexin-1 receptor, 3 nM orexin-A. It counts as cell-based. To be noted: 1 uM compound, orexin-A 3 nM; for inhibition at 1 µM: CHO, read-out: OXIR % Inh. @ 1 uM. Here is the method:
(§1) Antagonistic activities on both orexin receptors (i.e., to identify Orexin Receptor Antagonists) have been measured for each example compound using the in vitro assays (intracellular calcium measurements) as described herein. Other assays may also be used to identify Orexin Receptor Antagonists as would be understood by those of ordinary skill in the art. Chinese hamster ovary (CHO) cells expressing the human orexin-1 receptor and the human orexin-2 receptor, respectively, are grown in culture medium (Ham F-12 with L-Glutamine) containing 300 μg/mL G418, 100 U/mL penicillin, 100 μg/mL streptomycin and 10% heat inactivated fetal calf serum (FCS). The cells are seeded at 20′000 cells/well into 384-well black clear bottom sterile plates (Greiner). The seeded plates are incubated overnight at 37° C. in 5% CO2. Human orexin-A as an agonist is prepared as 1 mM stock solution in MeOH: water (1:1), diluted in HBSS containing 0.1% bovine serum albumin (BSA), NaHC03: 0.375 g/L and 20 mM HEPES for use in the assay at a final concentration of 3 nM.
(§2) Antagonists were prepared as 10 mM stock solution in DMSO, then diluted in 384-well plates using DMSO followed by a transfer of the dilutions into in HBSS containing 0.1% bovine serum albumin (BSA), NaHC03: 0.375 g/L and 20 mM HEPES. On the day of the assay, 50 μL of staining buffer (HBSS containing 1% FCS, 20 mM HEPES, NaHC03: 0.375 g/L, 5 mM probenecid (Sigma) and 3 μM of the fluorescent calcium indicator fluro-4 AM (1 mM stock solution in DMSO, containing 10% pluronic) is added to each well. The 384-well cell-plates are incubated for 50 min at 37° C. in 5% C02 followed by equilibration at RT for 30 min before measurement. Within the Fluorescent Imaging Plate Reader (FLIPR Tetra, Molecular Devices), potential Orexin Receptor Antagonists were added to the plate in a volume of 10 μl/well, incubated for 120 min and finally 10 μL/well of agonist is added. Fluorescence was measured for each well at 1 second intervals, and the height of each fluorescence peak compared to the height of the fluorescence peak induced by 3 nM orexin-A with vehicle in place of antagonist. The IC50 value (the concentration of compound needed to inhibit 50% of the agonistic response) was determined and normalized using the obtained IC50 value of an on-plate reference compound. Optimized conditions were achieved by adjustment of pipetting speed and cell splitting regime. The calculated IC50 values fluctuate depending on the daily cellular assay performance, as is known to those skilled in the art. In the case where IC50 values have been determined several times for the same compound, the geometric mean has been given.
For orientation: Calcium flux is commonly read through the fluorescence of an indicator in the cells.

A further assay concerns the target T2, human orexin-2 receptor (Homo sapiens, UniProt O43614).
T2 construct: expressed in transfected cells; host or cells: CHO cells (G418 selection)
T2 sequence (O43614 1-444): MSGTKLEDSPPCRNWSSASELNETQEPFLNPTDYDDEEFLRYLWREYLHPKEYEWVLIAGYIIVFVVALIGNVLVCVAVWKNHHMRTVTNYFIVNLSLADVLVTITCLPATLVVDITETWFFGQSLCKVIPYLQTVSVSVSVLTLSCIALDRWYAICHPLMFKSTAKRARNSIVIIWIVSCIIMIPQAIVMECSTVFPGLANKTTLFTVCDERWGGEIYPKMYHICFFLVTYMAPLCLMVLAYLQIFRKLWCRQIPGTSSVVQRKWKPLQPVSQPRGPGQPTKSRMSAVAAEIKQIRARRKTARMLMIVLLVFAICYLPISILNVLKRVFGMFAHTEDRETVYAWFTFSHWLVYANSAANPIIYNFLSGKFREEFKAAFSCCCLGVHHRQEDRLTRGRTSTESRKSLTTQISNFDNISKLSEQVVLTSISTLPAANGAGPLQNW
Description: Intracellular calcium (FLIPR) antagonist assay, CHO cells expressing human orexin-2 receptor, 3 nM orexin-A. In kind it is cell-based. To be noted: 1 uM compound, orexin-A 3 nM; for inhibition at 1 µM: CHO, read-out: OX2R % Inh. @ 1uM. Here is the method: as §1, §2

Each structure is given as a SMILES string.

With `COc1ccc(N2CC[C@@H](C)N(C(=O)c3c(-c4ccccc4)nc4ccccn34)CC2)cn1` [Example 22], the inhibition at 1 µM was determined as 15% on human orexin-1 receptor and 28.3% at human orexin-2 receptor.
As for `C[C@@H]1CCN(c2ccc(F)cn2)CCN1C(=O)c1c(-c2ccccc2)nc2ccccn12` [Example 23], the inhibition at 1 µM on human orexin-1 receptor turned out to be 18.6%; on human orexin-2 receptor, 32.7%.
Consider `C[C@@H]1CCN(c2ccc(F)cn2)CCN1C(=O)c1c(-c2ccccc2)nn2ccccc12` [Example 24], for which the values for the inhibition at 1 µM at human orexin-1 receptor and on human orexin-2 receptor were 44.2% and 46%, respectively.
On the same counts, the results for `C[C@@H]1CCN(c2ccc(F)cn2)CCN1C(=O)c1c(-c2ccccc2)nn2c1COCC2` [Example 25] are 11.6% and 7.7%.
On the same counts, the results for `Cc1cc(C)nc(N2CC3CN(C(=O)c4c(-c5ccccc5)nc5ccc(F)cn45)CC3C2)n1` (centres unmarked) [Example 26] are 1.61% and 33.8%.
Take `Cc1cc(C)nc(N2CC3CN(C(=O)c4c(-c5ccc(F)cc5)nc5ccccn45)CC3C2)n1` (centres unmarked) [Example 27]: the figures for the inhibition at 1 µM on human orexin-1 receptor and on human orexin-2 receptor were 6.42% and 14.2%, respectively.
In the same order, the values of `Cc1cc(C)nc(N2CC3CN(C(=O)c4c(-c5ccccc5F)nc5ccccn45)CC3C2)n1` (centres unmarked) [Example 28] are 18.3% and 36.6%.
With `Cc1cc(C)nc(N2CC3CN(C(=O)c4c(-c5ccccc5F)nc5ccccn45)CC3C2)n1` (centres unmarked) [Example 29], at human orexin-1 receptor, the “OXIR % Inh. @ 1 uM” value is on record as 19.54%. Also, at human orexin-2 receptor, the “OX2R % Inh. @ 1uM” value amounted to 34.14%.
As to `Cc1cc(C)nc(N2CC3CN(C(=O)c4c(-c5ccc(F)cc5)nn5ccccc45)CC3C2)n1` (centres unmarked) [Example 30], the inhibition at 1 µM was determined as 28.3% at human orexin-1 receptor and 36.8% on human orexin-2 receptor.
With `Cc1cc(C)nc(N2CC3CN(C(=O)c4nc5ccccn5c4-c4ccc(F)cc4)CC3C2)n1` (centres unmarked) [Example 31], the inhibition at 1 µM on human orexin-1 receptor came to 8.04%; on human orexin-2 receptor it was 3.74%.
On the same counts, the results for `Cc1cc(C)nc(N2CC3CN(C(=O)c4nc5ccccn5c4-c4ccccc4F)CC3C2)n1` (centres unmarked) [Example 32] are 4.01% and 12.1%.
In the same order, the values of `Cc1cc(C)nc(N2CC3CN(C(=O)c4nn5ccccc5c4-c4ccc(F)cc4)CC3C2)n1` (centres unmarked) [Example 33] are 5% and 17.6%.
Turning to `Cc1cc(C)nc(N2CC3CN(C(=O)c4nn5ccccc5c4-c4ccccc4F)CC3C2)n1` (centres unmarked) [Example 34], the inhibition at 1 µM is 2.36% on human orexin-1 receptor and 31.4% at human orexin-2 receptor.
In the case of `O=C(c1c(-c2ccccc2)nc2ccc(F)cn12)N1CC2CN(c3ccc(C(F)(F)F)cn3)CC2C1` (centres unmarked) [Example 35], the figures for the inhibition at 1 µM at human orexin-1 receptor and on human orexin-2 receptor were 59.1% and 22.5%, respectively.
In the same order, the values of `O=C(c1c(-c2ccccc2)nc2cc(F)ccn12)N1CC2CN(c3ccc(C(F)(F)F)cn3)CC2C1` (centres unmarked) [Example 36] are 35% and 23.6%.
On the same counts, the results for `Cc1cc(C)nc(N2CC3CN(C(=O)c4c(-c5ccccc5)nc5cc(C(F)(F)F)ccn45)CC3C2)n1` (centres unmarked) [Example 37] are 5.33% and 46.9%.
In the same order, the values of `Cc1cc(C)nc(N2CC3CN(C(=O)c4ccccc4-c4cnc5ccccn45)CC3C2)n1` (centres unmarked) [Example 38] are 6.86% and 3.32%.
Regarding `Cc1cc(C)nc(N2CC3CN(C(=O)c4c(-c5ccc(F)cc5)nn5c4COCC5)CC3C2)n1` (centres unmarked) [Example 39], the inhibition at 1 µM at human orexin-1 receptor came out at 14.9%. Further, the “OX2R % Inh. @ 1uM” value on human orexin-2 receptor stood at 29.13%.
On to `Cc1cc(C)nc(N2CC3CN(C(=O)c4c(-c5ccc(F)cc5)nn5c4COCC5)CC3C2)n1` (centres unmarked) [Example 40], for which, at human orexin-1 receptor, the “OXIR % Inh. @ 1 uM” value is on record as 11.58%. The “OX2R % Inh. @ 1uM” value on human orexin-2 receptor is 7.18%.
For `Cc1cc(C)nc(N2CC3CN(C(=O)c4c(-c5ccccc5)nn5c4COCC5)CC3C2)n1` (centres unmarked) [Example 41], the inhibition at 1 µM was found to be 6% at human orexin-1 receptor and 11.5% at human orexin-2 receptor.
Consider `Cc1cc(C)nc(N2CC3CN(C(=O)C4C(c5ccccc5)=NN5C=CC=CC45)CC3C2)n1` (centres unmarked) [Example 42], for which the inhibition at 1 µM on human orexin-1 receptor was found to be 40.4%; at human orexin-2 receptor it was 68%.
`Cc1cc(C)nc(N2CC3CN(C(=O)c4c(-c5ccccc5)nc5ccccn45)CC3C2)n1` (centres unmarked) [Example 43]: the inhibition at 1 µM was found to be 19.6% at human orexin-1 receptor and 38.4% on human orexin-2 receptor.
In the same order, the values of `Cc1cc(C)nc(N2CC3CN(C(=O)c4c(-c5ccccc5F)nn5ccccc45)CC3C2)n1` (centres unmarked) [Example 44] are 19.2% and 56.1%.
In the same order, the values of `O=C(c1c(-c2ccccc2F)nn2ccccc12)N1CC2CN(c3ccc(C(F)(F)F)cn3)CC2C1` (centres unmarked) [Example 45] are 78.2% and 27.1%.
On the same counts, the results for `O=C(c1c(-c2ccc(F)cc2)nn2ccccc12)N1CC2CN(c3ccc(C(F)(F)F)cn3)CC2C1` (centres unmarked) [Example 46] are 53.9% and 14.6%.
On to `O=C(c1c(-c2ccccc2F)nn2ccccc12)N1CC2CN(c3nc4cc(Cl)ccc4o3)CC2C1` (centres unmarked) [Example 47], for which the inhibition at 1 µM at human orexin-1 receptor turned out to be 97%; on human orexin-2 receptor it was 89%.
For `O=C(c1c(-c2ccc(F)cc2)nn2ccccc12)N1CC2CN(c3nc4cc(Cl)ccc4o3)CC2C1` (centres unmarked) [Example 48], the inhibition at 1 µM came to 87.1% at human orexin-1 receptor and 63.2% on human orexin-2 receptor.
In the case of `Cc1cc(C)nc(N2CC3CN(C(=O)c4c(-c5ccccc5F)nn5c4COCC5)CC3C2)n1` (centres unmarked) [Example 49], the inhibition at 1 µM at human orexin-1 receptor is -5.54%; at human orexin-2 receptor, 12.8%.
For the compound `O=C(c1c(-c2ccccc2F)nn2c1COCC2)N1CC2CN(c3ccc(C(F)(F)F)cn3)CC2C1` (centres unmarked) [Example 50], the inhibition at 1 µM at human orexin-1 receptor stood at 9.55%; at human orexin-2 receptor, 1.62%.
`O=C(c1c(-c2ccccc2F)nn2c1COCC2)N1CC2CN(c3nc4cc(Cl)ccc4o3)CC2C1` (centres unmarked) [Example 51]: the results for the inhibition at 1 µM on human orexin-1 receptor and at human orexin-2 receptor were 38.5% and 24.3%, respectively.
`C[C@@H]1CCN(c2nc3cc(Cl)ccc3o2)CCN1C(=O)c1c(-c2ccccc2F)nn2ccccc12` [Example 52]: the inhibition at 1 µM on human orexin-1 receptor was determined as 100%; on human orexin-2 receptor, 98.7%.
Take `C[C@@H]1CCN(c2ccc(C(F)(F)F)cn2)CCN1C(=O)c1c(-c2ccccc2F)nn2ccccc12` [Example 53]: the values for the inhibition at 1 µM on human orexin-1 receptor and at human orexin-2 receptor were 102% and 98.8%, respectively.
In the same order, the values of `Cc1cc(C)nc(N2CC[C@@H](C)N(C(=O)c3c(-c4ccccc4F)nn4ccccc34)CC2)n1` [Example 54] are 91.9% and 99.7%.
In the same order, the values of `C[C@@H]1CCN(c2ccc(C(F)(F)F)cn2)CCN1C(=O)c1nc2ccccn2c1-c1ccccc1` [Example 55] are 97% and 37%.
